Measured values published in publication PMC12363950 (bioRxiv, 2025).

Target: CRAF (Homo sapiens, UniProt P04049, Y340D/Y341D)

CCCS(=O)(=O)Nc1ccc(F)c(C(=O)c2c[nH]c3ncc(Cl)cc23)c1F [PLX4720]
X-ray crystal structure, 2.91 Å: The structure reveals clear electron density for both PLX4720 and CH5126766
